“And” between values parts separate entries of the source, which are not always exact repeats. Equal entries are not always repeated. Toxic doses and inconclusive results are not listed. Square brackets hold non-standard residues; d marks the D form. Peptide text beside a SMILES is read from it. ξ: configuration not given here. ξNle = CCCCC(N)C(=O)O

For the assay, the system named is P388 leukemia ip, CD2F1 mice, survival T/C. Put plainly: NCI In Vivo Anticancer Drug Screen. Data for tumor model P388 Leukemia (intraperitoneal) in CD2F1 (CDF1) mice. The settings on record: endpoint: median survival time, higher = longer survival. Put shortly:
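Mice carrying the transplanted tumor received test compound or vehicle. Survival was recorded in each group, and the value is the treated-group measurement divided by that of the vehicle-treated control group.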

Where [1] appears, read: dose: 50.0 mg/kg/injection, schedule: Q01DX005 (ip), vehicle: Klucel (hydroxypropylcellulose) (HPC).
[2] abbreviates: dose: 100.0 mg/kg/injection, schedule: Q01DX005 (ip), vehicle: Klucel (hydroxypropylcellulose) (HPC).
Where [3] appears, read: dose: 200.0 mg/kg/injection, schedule: Q01DX005 (ip), vehicle: Klucel (hydroxypropylcellulose) (HPC).
Setting [4] is: dose: 120.0 mg/kg/injection, schedule: Q01DX005 (ip), vehicle: saline with Tween-80.
[5] abbreviates: dose: 200.0 mg/kg/injection, schedule: Q01DX005 (ip), vehicle: saline with Tween-80.
Setting [6] is: dose: 50.0 mg/kg/injection, schedule: Q01DX009 (ip), vehicle: saline with Tween-80.
Setting [7] is: dose: 100.0 mg/kg/injection, schedule: Q01DX009 (ip), vehicle: saline with Tween-80.
The mark [8] stands for this setting: dose: 25.0 mg/kg/injection, schedule: Q01DX009 (ip), vehicle: saline with Tween-80.

Regarding `COc1cccc2c1C(=O)c1c(O)c3c(c(O)c1C2=O)C[C@@](O)(C(C)=O)C[C@@H]3OC(=O)CCN`, the T/C (dose: 0.78 mg/kg/injection, schedule: Q01DX009 (ip), vehicle: water) was 112 % of control; the T/C (dose: 1.56 mg/kg/injection, schedule: Q01DX009 (ip), vehicle: water) was 110 % of control; the T/C (dose: 3.13 mg/kg/injection, schedule: Q01DX009 (ip), vehicle: water) is 118 % of control; the T/C (dose: 8.33 mg/kg/injection, schedule: Q01DX009 (ip), vehicle: water) was 123 % of control; the T/C (dose: 12.5 mg/kg/injection, schedule: Q01DX009 (ip), vehicle: water) is 120 % of control; the T/C (dose: 18.8 mg/kg/injection, schedule: Q01DX009 (ip), vehicle: water) was 101 % of control. Further, under “dose: 25.0 mg/kg/injection, schedule: Q01DX009 (ip), vehicle: water”, the T/C is 118 % of control.

For `[N-]=[N+]=NC1(N=[N+]=[N-])C(=O)Nc2ccccc2C1=O` (stereo not given), the T/C is 93 % of control under setting [1], 103 % of control under setting [2] and 107 % of control under setting [3].

Regarding `CCN1C(=O)CC([Se]c2ccccc2)C1=O` (stereo not given), the T/C by setting is: (dose: 6.25 mg/kg/injection, schedule: Q04DX003 (ip), vehicle: Klucel (hydroxypropylcellulose) (HPC)) 99 % of control and 103 % of control; (dose: 12.5 mg/kg/injection, schedule: Q04DX003 (ip), vehicle: Klucel (hydroxypropylcellulose) (HPC)) 99 % of control and 102 % of control; (dose: 25.0 mg/kg/injection, schedule: Q04DX003 (ip), vehicle: Klucel (hydroxypropylcellulose) (HPC)) 100 % of control and 105 % of control; (dose: 50.0 mg/kg/injection, schedule: Q04DX003 (ip), vehicle: Klucel (hydroxypropylcellulose) (HPC)) 103 % of control and 104 % of control; (dose: 100.0 mg/kg/injection, schedule: Q04DX003 (ip), vehicle: Klucel (hydroxypropylcellulose) (HPC)) 100 % of control and 104 % of control.

In the case of `CCC1(N(C)C)C(=O)NC(=O)N(C2CCCCC2)C1=O` (stereo not given), the T/C by setting is: (dose: 60.0 mg/kg/injection, schedule: Q01DX005 (ip), vehicle: Klucel (hydroxypropylcellulose) (HPC)) 98 % of control; (dose: 120.0 mg/kg/injection, schedule: Q01DX005 (ip), vehicle: Klucel (hydroxypropylcellulose) (HPC)) 96 % of control; (dose: 240.0 mg/kg/injection, schedule: Q01DX005 (ip), vehicle: Klucel (hydroxypropylcellulose) (HPC)) 91 % of control.

Take `CCC1=CC2CN(CCc3c([nH]c4ccccc34)C(C(=O)OC)(c3cc4c(cc3OC)N(C=O)C3C(O)(C(=O)NC)C(OC(C)=O)C5(CC)C=CCN6CCC43C65)C2)C1` (stereo not given): the T/C is 150 % of control (dose: 1.0 mg/kg/injection, schedule: Q01DX001 (ip), vehicle: water); 153 % of control (dose: 2.0 mg/kg/injection, schedule: Q01DX001 (ip), vehicle: water); 160 % of control (dose: 4.0 mg/kg/injection, schedule: Q01DX001 (ip), vehicle: water).

In the case of `CCN(CC)c1ccc(C(C#N)(c2ccc(N(CC)Cc3cccc(S(=O)(=O)O)c3)cc2)c2ccc(N(CC)Cc3cccc(S(=O)(=O)O)c3)cc2)cc1`, the T/C reads like this: (dose: 72.0 mg/kg/injection, schedule: Q01DX001 (ip), vehicle: saline with Tween-80) 98 % of control and 102 % of control; (dose: 72.0 mg/kg/injection, schedule: Q01DX005 (ip), vehicle: saline with Tween-80) 99 % of control; (dose: 120.0 mg/kg/injection, schedule: Q01DX001 (ip), vehicle: saline with Tween-80) 104 % of control and 92 % of control; under setting [4], 92 % of control; (dose: 200.0 mg/kg/injection, schedule: Q01DX001 (ip), vehicle: saline with Tween-80) 90 % of control and 96 % of control; under setting [5], 98 % of control.

Take `CC(C)(OC(=O)NC(Cc1cnc[nH]1)C(=O)O)c1ccc(N=Nc2ccccc2)cc1` (stereo not given): the T/C was 97 % of control under setting [6]; 94 % of control under setting [7]; 97 % of control (dose: 200.0 mg/kg/injection, schedule: Q01DX009 (ip), vehicle: saline with Tween-80).

On to `CCCCCC/C=C/C1CC(=O)OC1=O` (stereo not given), for which, for the setting “dose: 100.0 mg/kg/injection, schedule: Q04DX003 (ip), vehicle: saline with Tween-80”, the T/C is 95 % of control.

`C/C=C1\C(=O)OC23C=CC4C(C(=O)OC)C(O)OC(OC12)C43` (stereo not given): the T/C (dose: 0.12 mg/kg/injection, schedule: Q01DX009 (ip), vehicle: saline) was 89 % of control; the T/C (dose: 0.25 mg/kg/injection, schedule: Q01DX009 (ip), vehicle: Klucel (hydroxypropylcellulose) (HPC)) was 100 % of control; the T/C (dose: 0.25 mg/kg/injection, schedule: Q01DX009 (ip), vehicle: saline) was 104 % of control; the T/C (dose: 0.5 mg/kg/injection, schedule: Q01DX009 (ip), vehicle: Klucel (hydroxypropylcellulose) (HPC)) is 99 % of control; the T/C (dose: 0.5 mg/kg/injection, schedule: Q01DX009 (ip), vehicle: saline) was 106 % of control; the T/C (dose: 1.0 mg/kg/injection, schedule: Q01DX009 (ip), vehicle: Klucel (hydroxypropylcellulose) (HPC)) is 98 % of control. Further, the T/C reads like this: (dose: 1.0 mg/kg/injection, schedule: Q01DX009 (ip), vehicle: saline with Tween-80) 106 % of control; (dose: 1.0 mg/kg/injection, schedule: Q01DX009 (ip), vehicle: saline) 101 % of control; (dose: 2.0 mg/kg/injection, schedule: Q01DX009 (ip), vehicle: Klucel (hydroxypropylcellulose) (HPC)) 98 % of control; (dose: 2.0 mg/kg/injection, schedule: Q01DX009 (ip), vehicle: saline with Tween-80) 110 % of control; (dose: 4.0 mg/kg/injection, schedule: Q01DX009 (ip), vehicle: saline with Tween-80) 107 % of control.

On to `O=Ic1ccccc1`, for which the T/C runs as follows: (dose: 3.12 mg/kg/injection, schedule: Q01DX009 (ip), vehicle: saline with Tween-80) 104 % of control; (dose: 6.25 mg/kg/injection, schedule: Q01DX009 (ip), vehicle: saline with Tween-80) 108 % of control; (dose: 12.5 mg/kg/injection, schedule: Q01DX009 (ip), vehicle: saline with Tween-80) 114 % of control; under setting [8], 112 % of control; under setting [6], 99 % of control.

Take `C=Cc1c(C#N)nc(C)c(C)c1-c1ccc(OC)c(OC)c1OCc1ccccc1`: the T/C is 101 % of control under setting [1], 95 % of control under setting [2] and 108 % of control under setting [3].

With `NCCN1C(=O)C2C3CCC(O3)C2C1=O` (stereo not given), the T/C is, setting by setting: (dose: 60.0 mg/kg/injection, schedule: Q01DX005 (ip), vehicle: saline with Tween-80) 96 % of control; under setting [4], 98 % of control; (dose: 240.0 mg/kg/injection, schedule: Q01DX005 (ip), vehicle: saline with Tween-80) 107 % of control.

With `CCC(c1ccc(OC)cc1)C(CC)c1ccc(O)c(CN2CCN(C)CC2)c1` (stereo not given), the T/C is, setting by setting: under setting [8], 123 % of control; under setting [6], 119 % of control; under setting [7], 119 % of control.

In the case of `CCN(CC)CCNC(=S)NNc1nc(C)ccc1[N+](=O)[O-]`, the T/C reads like this: (dose: 12.5 mg/kg/injection, schedule: Q01DX009 (ip), vehicle: Klucel (hydroxypropylcellulose) (HPC)) 99 % of control; (dose: 25.0 mg/kg/injection, schedule: Q01DX009 (ip), vehicle: Klucel (hydroxypropylcellulose) (HPC)) 95 % of control; (dose: 50.0 mg/kg/injection, schedule: Q01DX009 (ip), vehicle: Klucel (hydroxypropylcellulose) (HPC)) 87 % of control and 97 % of control.

For `COc1cc2c(cc1OC)C(CCN1C(=O)CCC1=O)=NCC2`, the T/C (dose: 50.0 mg/kg/injection, schedule: Q01DX009 (ip), vehicle: saline sonified) was 100 % of control; the T/C (dose: 100.0 mg/kg/injection, schedule: Q01DX009 (ip), vehicle: saline sonified) was 100 % of control; the T/C (dose: 200.0 mg/kg/injection, schedule: Q01DX009 (ip), vehicle: saline sonified) was 95 % of control.

Turning to `[O-]/[N+](=C\c1ccccc1)C(c1ccccc1)c1ccccc1`, the T/C (dose: 25.0 mg/kg/injection, schedule: Q04DX003 (ip), vehicle: saline) is 100 % of control; the T/C (dose: 50.0 mg/kg/injection, schedule: Q04DX003 (ip), vehicle: saline) is 100 % of control; the T/C (dose: 100.0 mg/kg/injection, schedule: Q04DX003 (ip), vehicle: saline) is 100 % of control.

With `CCCCC(NC(=O)CNC(=O)CN)C(=O)O` (stereo not drawn) (H-Gly-Gly-[ξNle]-OH), the T/C runs as follows: (dose: 50.0 mg/kg/injection, schedule: Q01DX005 (ip), vehicle: saline with Tween-80) 94 % of control; (dose: 100.0 mg/kg/injection, schedule: Q01DX005 (ip), vehicle: saline with Tween-80) 94 % of control; under setting [5], 93 % of control.

In the case of `CCOC(=O)NNc1nc(-c2ccccc2)nc2nonc12`, the T/C reads like this: under setting [8], 91 % of control; under setting [7], 110 % of control.

For the origin of these results see PubChem BioAssay AID330 (DTP/NCI, 2004).
